EC50 and melting point data for 33 compounds are collected here from patent publication US8772323B2, “Benzoxazole- and tetrahydrobenzoxazole-substituted pyridazinones as GPR119 agonists” (Boehringer Ingelheim International GmbH, priority 2010, dated 2014).

Where a name gives a salt, the structure may show the parent alone.

The target in one series is human GPR119 (Homo sapiens (Human), UniProt Q8TDV5). The series is described as follows: AlphaScreen cAMP assay in Min-6/hGPR119 cells (GPR119 activation, intracellular cAMP). The conditions noted are these: MIN6 cells stably transfected with human GPR119; 45 minutes' incubation at RT; AlphaScreen cAMP Assay Kit. In kind it is cell-based. An outline of the steps:
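MIN6 cells stably expressing human GPR119 plated 10000 cells/well and held 24 h at 37° C. Compounds applied in stimulating buffer, pH 7.4, with 0.5 mM IBMX, 0.1% BSA, 1% DMSO final, for 45 min at RT. Intracellular cAMP read by AlphaScreen.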

Chain of human GPR119 (Q8TDV5 whole entry): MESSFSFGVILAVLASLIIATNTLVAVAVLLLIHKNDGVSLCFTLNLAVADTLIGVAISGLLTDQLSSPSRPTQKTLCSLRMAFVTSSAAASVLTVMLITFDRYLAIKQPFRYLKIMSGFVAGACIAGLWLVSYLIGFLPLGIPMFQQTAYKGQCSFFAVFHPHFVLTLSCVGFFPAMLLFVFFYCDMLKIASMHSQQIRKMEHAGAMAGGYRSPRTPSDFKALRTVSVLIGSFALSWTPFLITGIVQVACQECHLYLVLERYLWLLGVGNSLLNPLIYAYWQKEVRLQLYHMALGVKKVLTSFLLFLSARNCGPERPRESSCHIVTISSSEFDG

As usually defined, the EC50 is the concentration needed to bring the measured effect to its halfway point. Broadly, the melting point is the temperature, or range, at which the solid turns liquid. Compound `CC1CC(=O)NN=C1c1ccc2nc(-c3cccnc3)oc2c1` (centres unmarked) [Example 110, 5-methyl-6-(2-pyridin-3-yl-benzoxazol-6-yl)-4,5-dihydro-2H-pyridazin-3-one] gave a melting point of 218 °C. The compound also showed an EC50 on human GPR119 of 4540 nM. `CC1CC(=O)NN=C1c1ccc2nc(N3CCSCC3)oc2c1` (centres unmarked) [Example 113, 5-methyl-6-(2-thiomorpholin-4-yl-benzoxazol-6-yl)-4,5-dihydro-2H-pyridazin-3-one]: the melting point was found to be 218 °C. Moreover, it took 1900 nM to reach a half-maximal effect at human GPR119 (EC50). Turning to `CC1CC(=O)NN=C1c1ccc2nc(N3CCCCC3)oc2c1` (centres unmarked) [Example 115, 5-methyl-6-(2-piperidin-1-yl-benzoxazol-6-yl)-4,5-dihydro-2H-pyridazin-3-one], the melting point turned out to be 235 °C. The EC50 at human GPR119 came to 1130 nM. In turn, `CC1CC(=O)NN=C1c1ccc2nc(N3CCOCC3)oc2c1` (centres unmarked) [Example 116, 5-methyl-6-(2-morpholine-1-yl-benzoxazol-6-yl)-4,5-dihydro-2H-pyridazin-3-one] registered a melting point of 209 °C. Further, the response at human GPR119 was half-maximal at 3450 nM (EC50). `CC1CC(=O)NN=C1c1ccc2nc(-c3ccco3)oc2c1` (centres unmarked) [Example 108, 5-methyl-6-(2-furan-2-yl-benzoxazol-6-yl)-4,5-dihydro-2H-pyridazin-3-one]: the melting point is 209 °C. Further, the EC50 on human GPR119 turned out to be 346 nM. For `CC1CC(=O)NN=C1c1ccc2nc(-c3ccc(Cl)nc3Cl)oc2c1` (centres unmarked) [Example 120, 6-[2-(2,6-dichloro-pyridin-3-yl)-benzoxazol-6-yl]-5-methyl-4,5-dihydro-2H-pyridazin-3-one], in that order: 268 °C and 1340 nM. For `CC1CC(=O)NN=C1c1ccc2nc(-c3ccc(N)nc3)oc2c1` (centres unmarked) [Example 109, 6-[2-(6-amino-pyridin-3-yl)-benzoxazol-6-yl]-5-methyl-4,5-dihydro-2H-pyridazin-3-one], in that order: 293 °C and 1410 nM.

Take `CC1CC(=O)NN=C1c1ccc2nc(-c3cccs3)oc2c1` (centres unmarked) [Example 106, 5-methyl-6-(2-thiophen-2-yl-benzoxazol-6-yl)-4,5-dihydro-2H-pyridazin-3-one]: the melting point was found to be 222 °C. This compound also returned an EC50 at human GPR119 of 120 nM.

`CC1CC(=O)NN=C1c1ccc2nc(-c3ccc(N4CCOCC4)nc3Cl)oc2c1` (centres unmarked) [Example 121, 6-[2-(2-chloro-6-morpholin-4-yl-pyridin-3-yl)-benzoxazol-6-yl]-5-methyl-4,5-dihydro-2H-pyridazin-3-one] came in with a melting point of 236 °C. At human GPR119, this compound gave an EC50 of 379 nM. For `CC1CC(=O)NN=C1c1ccc2nc(N3CCNCC3)oc2c1` (centres unmarked) [Example 117, 5-methyl-6-(2-piperazin-1-yl-benzoxazol-6-yl)-4,5-dihydro-2H-pyridazin-3-one], in that order: 213 °C and 9390 nM. For `CCCC1CCN(CCOc2ccc(-c3nc4ccc(C5=NNC(=O)CC5CC)cc4o3)cc2)CC1` (centres unmarked) [Example 244, 5-ethyl-6-(2-{4-[2-(4-propyl-piperidin-1-yl)-ethoxy]-phenyl}-benzoxazol-6-yl)-4,5-dihydro-2H-pyridazin-3-one], at human GPR119, the EC50 was 181 nM. In turn, `CCC[C@H]1C(=O)NN=C(c2ccc3nc(-c4ccco4)oc3c2)[C@@H]1C` [Example 188, trans-6-(2-uran-2-yl-benzoxazol-6-yl)-5-methyl-4-propyl-4,5-dihydro-2H-pyridazin-3-one] gave an EC50 at human GPR119 of 83 nM. `CO[C@@H]1CC(=O)NN=C1c1ccc2nc(-c3ccccc3)oc2c1` [Example 27, (R)-5-methoxy-6-(2-phenyl-benzoxazol-6-yl)-4,5-dihydro-2H-pyridazin-3-one] yielded an EC50 at human GPR119 of 444 nM. This EC50 lies about 5.3-fold higher than the previous one. `CC1CC(c2ccc3nc(-c4cccs4)oc3c2)=NNC1=O` (centres unmarked) [Example 139, 4-methyl-6-(2-thiophen-2-yl-benzoxazol-6-yl)-4,5-dihydro-2H-pyridazin-3-one] returned an EC50 at human GPR119 of 1560 nM. Against the preceding compound, the EC50 is about 3.5-fold higher. Same read-out and setting: with `CCC1CC(=O)NN=C1c1ccc2nc(-c3ccc(O)cc3)oc2c1` (centres unmarked) [Example 37, 5-ethyl-6-[2-(4-hydroxy-phenyl)-benzoxazol-6-yl]-4,5-dihydro-2H-pyridazin-3-one] the figure was 636 nM; with `CCC1CC(=O)NN=C1c1ccc2nc(-c3ccc(OC4CCNCC4)cc3)oc2c1` (centres unmarked) [Example 72, 5-ethyl-6-{2-[4-(piperidin-4-yloxy)-phenyl]-benzoxazol-6-yl}-4,5-dihydro-2H-pyridazin-3-one hydrochloride], 1810 nM; with `O=C1NN=C(c2ccc3nc(-c4ccc(CN5CCCCC5)cc4)oc3c2)C2CC12` (centres unmarked) [Example 15, 5-[2-(4-piperidin-1-ylmethyl-phenyl)-benoxazol-6-yl]-3,4-diaza-bicyclo[4.1.0]hept-4-en-2-one], 701 nM.

On to `CCC[C@@H]1C(=O)NN=C(c2ccc3nc(-c4ccc(OCCCN5CCCCC5)cc4)oc3c2)[C@H]1C` (relative stereo) [Example 172, trans-5-methyl-6-{2-[4-(3-piperidin-1-yl-propoxy)-phenyl]-benzoxazol-6-yl}-4-propyl-4,5-dihydro-2H-pyridazin-3-one], for which, at human GPR119, the EC50 is 755 nM. On the same count and under the same terms, next, `CCC1CC(=O)NN=C1c1ccc2nc(-c3cccc(OCCN(CC)C(C)C)c3)oc2c1` (centres unmarked) [Example 218]: 840 nM; `CC[C@@H]1C(=O)NN=C(c2ccc3nc(-c4ccccc4)oc3c2)[C@H]1C` (relative stereo) [Example 126, trans-4-ethyl-5-methyl-6-(2-phenyl-benzoxazol-6-yl)-4,5-dihydro-2H-pyridazin-3-one]: 306 nM. With `CCC1CC(=O)NN=C1c1ccc2nc(-c3ccc(OCC(C)N4CCCC4)cc3)oc2c1` (centres unmarked) [Example 209, 5-ethyl-6-{2-[4-(2-pyrrolidin-1-yl-propoxy)-phenyl]-benzoxazol-6-yl}-4,5-dihydro-2H-pyridazin-3-one], the EC50 at human GPR119 was 311 nM. The same measure, in the same setting: with `CCC1CC(=O)NN=C1c1ccc2nc(-c3ccc(OCc4ccccn4)cc3)oc2c1` (centres unmarked) [Example 47, 5-ethyl-6-{2-[4-(pyridin-2-ylmethoxy)-phenyl]-benzoxazol-6-yl}-4,5-dihydro-2H-pyridazin-3-one] the figure was 226 nM; with `CCCC1CC(c2ccc3nc(-c4ccccc4)oc3c2)=NNC1=O` (centres unmarked) [Example 9, 6-(2-phenyl-benzoxazol-6-yl)-4-propyl-4,5-dihydro-2H-pyridazin-3-one], 834 nM; with `O=C1CCC(c2ccc3nc(-c4ccccc4)oc3c2)=NN1` [Example 16, 6-(2-phenyl-benzoxazol-6-yl)-4,5-dihydro-2H-pyridazin-3-one], 314 nM. Consider `CCC1OC(=O)NN=C1c1ccc2nc(-c3ccccc3)oc2c1` (centres unmarked) [Example 78, 6-ethyl-5-(2-phenyl-benzoxazol-6-yl)-3,6-dihydro-[1,3,4]oxadiazin-2-one], for which, on human GPR119, the concentration giving a half-maximal response (EC50) amounted to 61 nM. Same read-out and setting: with `CCC1CC(=O)NN=C1c1ccc2nc(-c3ccc(OCC4CCN(S(C)(=O)=O)CC4)cc3)oc2c1` (centres unmarked) [Example 74, 5-ethyl-6-{2-[4-(1-methanesulphonyl-piperidin-4-ylmethoxy)-phenyl]-benzoxazol-6-yl}-4,5-dihydro-2H-pyridazin-3-one] the figure was 240 nM; with `COc1cccc(-c2nc3ccc(C4=NNC(=O)CC4C)cc3o2)c1` (centres unmarked) [Example 85, 6-[2-(3-methoxy-phenyl)-benzoxazol-6-yl]-5-methyl-4,5-dihydro-2H-pyridazin-3-one], 334 nM. Still for that read-out and setting: next, `CCC1CC(=O)NN=C1c1ccc2nc(-c3cccc(OCCN(C(C)C)C(C)C)c3)oc2c1` (centres unmarked) [Example 154, 6-{2-[3-(2-diisopropylamino-ethoxy)-phenyl]-benzoxazol-6-yl}-5-ethyl-4,5-dihydro-2H-pyridazin-3-one]: 424 nM. Still for that read-out and setting: next, `CCC1CC(=O)NN=C1c1ccc2nc(-c3ccc(OCCN(CC(C)C)CC(C)C)cc3)oc2c1` (centres unmarked) [Example 160, 6-{2-[4-(2-diisobulylamino-ethoxy)-phenyl]-benzoxazol-6-yl}-5-ethyl-4,5-dihydro-2H-pyridazin-3-one]: 124 nM. In turn, `CC(C)C1CC(=O)NN=C1c1ccc2nc(-c3ccccc3)oc2c1` (centres unmarked) [Example 32, 5-isopropyl-6-(2-phenyl-benzoxazol-6-yl)-4,5-dihydro-2H-pyridazin-3-one] had an EC50 at human GPR119 of 869 nM. Compared with the last compound, the EC50 is about 7-fold higher.

Take `CCOC(=O)N1CCN(c2nc3ccc(C4=NNC(=O)CC4C)cc3o2)CC1` (centres unmarked) [Example 114, ethyl 4-[6-(4-methyl-6-oxo-1,4,5,6-tetrahydro-pyridazin-3-yl)-benzoxazol-2-yl]-piperazine-1-carboxylate]: the melting point is 239 °C. On human GPR119, the EC50 was determined as 2290 nM. On to `CC[C@@H]1CC(=O)NN=C1N1CCc2nc(-c3ccccc3)oc2C1` [Example 202, (5R)-5-ethyl-6-{2-phenyl-4H,5H,6H,7H-pyrido[4.3-d][1.3]oxazol-5-yl}-2,3,4,5-tetrahydropyridazin-3-one], for which, on human GPR119, the EC50 was determined as 133 nM. Same read-out and setting: with `CCC1CC(=O)NN=C1c1ccc2nc(-c3ccc(OCCN4CCOCC4)cc3)oc2c1` (centres unmarked) [Example 64, 5-ethyl-6-{2-[4-(2-morpholin-4-yl-ethoxy)-phenyl]-benzoxazol-6-yl}-4,5-dihydro-2H-pyridazin-3-one] the figure was 237 nM.
